Data as given in ChEMBL document CHEMBL1201862, “PubChem BioAssay data set” (2004).
The source made the active and inactive calls.

Key:
[1] = A cytotoxicity screen of small molecule inhibitors of the PhoP region in Salmonella typhi identified in the primary screen. [Related pubchem assays: 1850, 1864, 1985 ]; assay type: functional
Cytochrome P450 3A4 = Cytochrome P450 3A4 (Homo sapiens, UniProt P08684); conditions: Potency;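 also: confirmatory qHTS run detecting inhibitors and substrates of CYP3A4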
[2] = target: T1, Oxysterols receptor LXR-beta (Homo sapiens, UniProt P55055); assay type: functional, cell-based;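 also: agonist activity at LXR measured by a cell-based luminescence readout across a dose range, run as a counterscreen for daf-12 agonists; HEK293 cells with Gal4-LXR fusion and GAL4-driven luciferase reporter; potency for activation of Gal4-LXR reporter so compounds are agonists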
T1 sequence (P55055 whole entry): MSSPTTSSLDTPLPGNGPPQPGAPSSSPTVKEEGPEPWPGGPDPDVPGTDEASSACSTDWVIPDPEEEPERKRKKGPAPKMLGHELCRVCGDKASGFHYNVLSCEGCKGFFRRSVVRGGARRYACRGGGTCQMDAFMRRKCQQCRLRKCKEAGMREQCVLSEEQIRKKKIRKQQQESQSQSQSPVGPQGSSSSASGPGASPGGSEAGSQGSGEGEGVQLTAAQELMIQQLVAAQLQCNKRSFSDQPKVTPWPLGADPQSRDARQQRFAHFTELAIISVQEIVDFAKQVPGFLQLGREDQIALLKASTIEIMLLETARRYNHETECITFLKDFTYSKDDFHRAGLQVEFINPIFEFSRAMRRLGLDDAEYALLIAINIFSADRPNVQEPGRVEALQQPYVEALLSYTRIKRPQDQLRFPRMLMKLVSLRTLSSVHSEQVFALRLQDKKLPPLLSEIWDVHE

[3] = THP-1 cell cytotoxicity, dose response, cytotoxicity control for Vif-APOBEC3G degradation inhibitor project, THP-1 cells (AID 1117359); assay type: functional; conditions: Human immunodeficiency virus 1, THP-1
[4] = target: T2, Corticotropin-releasing factor receptor 2/Corticotropin-releasing factor-binding protein (Homo sapiens, UniProt P24387+Q13324); assay: Dose Response confirmation of uHTS hits for small molecule antagonists of the CRF-binding protein and CRF-R2 receptor complex.; assay type: functional; conditions: read-out: IC50_Mean
T2 sequence (Q13324 whole entry): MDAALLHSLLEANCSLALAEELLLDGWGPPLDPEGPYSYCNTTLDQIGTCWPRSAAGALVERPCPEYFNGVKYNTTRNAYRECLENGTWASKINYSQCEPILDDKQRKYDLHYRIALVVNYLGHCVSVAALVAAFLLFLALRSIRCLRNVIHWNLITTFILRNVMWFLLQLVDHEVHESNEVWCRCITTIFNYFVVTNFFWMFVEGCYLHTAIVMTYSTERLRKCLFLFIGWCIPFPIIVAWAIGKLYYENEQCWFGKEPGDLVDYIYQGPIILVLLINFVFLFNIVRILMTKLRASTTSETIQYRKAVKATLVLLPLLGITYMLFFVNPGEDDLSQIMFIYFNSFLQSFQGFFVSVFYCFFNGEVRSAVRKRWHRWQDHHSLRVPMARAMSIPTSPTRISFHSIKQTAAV
T2 sequence (P24387 whole entry): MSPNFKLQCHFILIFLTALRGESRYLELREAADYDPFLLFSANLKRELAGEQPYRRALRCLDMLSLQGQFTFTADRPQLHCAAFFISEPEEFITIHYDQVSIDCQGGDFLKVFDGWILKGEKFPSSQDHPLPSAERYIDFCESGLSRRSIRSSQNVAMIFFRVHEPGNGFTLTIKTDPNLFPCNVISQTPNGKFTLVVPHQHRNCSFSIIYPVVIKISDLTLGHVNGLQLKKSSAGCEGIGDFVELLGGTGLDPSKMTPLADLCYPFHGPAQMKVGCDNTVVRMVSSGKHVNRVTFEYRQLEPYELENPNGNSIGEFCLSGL

[5] = target: T2, Corticotropin-releasing factor receptor 2/Corticotropin-releasing factor-binding protein; assay: activators of CRF receptor 2 with binding protein – uHTS hits, confirmation (AID 602473); assay type: functional; conditions: read-out: EC50_Mean
[6] = Luminescence Cell-Based Dose Confirmation to Identify Activators of 5'UTR Stem-Loop Driven Alpha-Synuclein mRNA Translation in H4 Neuroglioblastoma Cells. [Related pubchem assays: 1829 (Project Summary), 1814 (Primary HTS)]; assay type: functional
[7] = Luminescence Cell-Based Dose Response HTS to Identify Activators of Luciferase Translation or Activity in H4 […] Cells. [Related pubchem assays: 1829 (Project Summary), 1814 (Primary HTS)]; assay type: functional
[8] = Luminescence Cell-Based Dose Response to Identify Activators of Luciferase Translation or Activity in H4-C Neuroglioblastoma Cells. [Related pubchem assays: 1829 (Project Summary), 1814 (Primary HTS)]; assay type: functional
H4 = assay: Luminescence Cell-Based Dose Response HTS to Identify Activators of 5'UTR Stem-Loop Driven Prion Protein mRNA Translation in H4 Neuroglioblastoma Cells. [Related pubchem assays: 1829 (Project Summary), 1814 (Primary HTS)]; assay type: functional; conditions: Homo sapiens
[9] = Luminescence Cell-Based Dose Response to Identify Activators of 5'UTR Stem-Loop Driven Prion Protein mRNA Translation in H4-C Neuroglioblastoma Cells. [Related pubchem assays: 1829 (Project Summary), 1814 (Primary HTS)]; assay type: functional
[10] = target: T3, Carboxy-terminal domain RNA polymerase II polypeptide A small phosphatase 1 (Homo sapiens, UniProt Q9GZU7); assay: inhibitors of CTDSP1, concentration-response testing, biochemical assay, absorbance-based, actives from ultra-high-throughput screening (AID 540297); assay type: functional
T3 sequence (Q9GZU7 whole entry): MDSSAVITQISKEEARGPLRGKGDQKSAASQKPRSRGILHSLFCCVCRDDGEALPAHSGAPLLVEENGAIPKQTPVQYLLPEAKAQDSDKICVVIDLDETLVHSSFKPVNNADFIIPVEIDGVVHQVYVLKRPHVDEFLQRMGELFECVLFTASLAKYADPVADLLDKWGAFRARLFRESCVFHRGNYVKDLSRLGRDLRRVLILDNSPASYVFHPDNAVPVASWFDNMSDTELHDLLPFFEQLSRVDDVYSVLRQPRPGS

[11] = Luminescence Cell-Based Dose Confirmation HTS to Identify Activators of 5'UTR Stem-Loop Driven Alpha-Synuclein mRNA Translation in H4 Neuroglioblastoma Cells. [Related pubchem assays: 1829 (Project Summary), 1814 (Primary HTS)]; assay type: functional
[12] = P. falciparum Dd2 growth inhibitors, dose response, SYBR Green, dry powder samples, set 9 (AID 1159568); assay type: functional, cell-based

Chain of Cytochrome P450 3A4 (P08684 whole entry, the tested form may be a part): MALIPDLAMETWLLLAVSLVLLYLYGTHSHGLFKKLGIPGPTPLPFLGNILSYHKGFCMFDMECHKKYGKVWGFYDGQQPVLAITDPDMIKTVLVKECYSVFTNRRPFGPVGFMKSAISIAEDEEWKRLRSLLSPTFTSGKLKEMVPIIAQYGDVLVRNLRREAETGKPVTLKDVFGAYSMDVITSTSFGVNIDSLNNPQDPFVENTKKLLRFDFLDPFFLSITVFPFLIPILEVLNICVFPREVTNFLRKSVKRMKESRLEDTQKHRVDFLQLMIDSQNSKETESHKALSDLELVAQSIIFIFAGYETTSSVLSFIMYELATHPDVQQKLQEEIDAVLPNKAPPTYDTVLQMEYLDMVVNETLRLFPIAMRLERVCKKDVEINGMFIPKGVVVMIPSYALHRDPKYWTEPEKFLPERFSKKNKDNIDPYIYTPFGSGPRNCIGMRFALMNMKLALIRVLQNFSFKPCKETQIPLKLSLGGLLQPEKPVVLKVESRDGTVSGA

With Cc1ccc(OCc2nnc(NC(=O)c3cccnc3)s2)cc1 the EC50 [1] was > 50 µM (active).

For CC(C)C1=CC2=CCC3[C@@](C)(CCC[C@@]3(C)C(=O)O)C2CC1 (stereo not given in full), the AC50 (Cytochrome P450 3A4) was 39.8 µM (inconclusive).

For Cc1ccc(NC(=S)NC(=O)C2CCCC2)c(Br)c1, the EC50 [2] was > 67.5 µM (inactive).

With Cn1c(NCc2c[nH]c3ccccc23)nc2ccccc21 the EC50 [2] was > 67.5 µM (inactive).

With CCc1ccc(NC2=NCCCS2)cc1 the EC50 [1] was > 50 µM (active).

In the case of CCCCCC(=O)NNC(=S)NC(C)=O, the EC50 [1] is reported as > 50 µM (active).

In the case of CN(C)CCNC(=O)C(=O)c1c(-c2ccccc2)cc2ccccn12, the CC50 [3] is reported as > 40 µM (active), the IC50 [4] is reported as > 47.1 µM (inactive) and the EC50 [5] is reported as > 53 µM (inactive).

With COc1ccccc1-c1nn2c(-c3ccco3)nnc2s1 the EC50 [6] was 0.613 µM (active), the EC50 [7] was < 0.1 µM (active) and the EC50 [8] was 0.431 µM (active). The EC50 (H4) was 14.9 µM (active), the EC50 [9] was 1.27 µM (active) and the IC50 [10] was 12 µM (active). The EC50 [11] was 0.129 µM (active).

For COc1ccc2c3c([nH]c2c1)[C@H](CO)N(S(C)(=O)=O)CC31CCN(C(=O)Nc2ccccc2)CC1, the AC50 [12] was 0.145 µM (active).

With CN=c1ccccc(-c2ccc3cc4c(cc3n2)OCO4)c1O the CC50 [3] was > 40 µM (active).

With N#Cc1cccc(-c2ccc3c(c2)[C@H]2[C@H](CCN2S(=O)(=O)c2ccc(F)cc2)[C@@H](CO)N3)c1 the AC50 [12] was 8.37 µM (active).

For COc1ccc(Oc2cnn(-c3ccccc3)c(=O)c2Br)cc1, the EC50 [2] was > 67.5 µM (inactive).
